Experimental findings from patent US20180265463A1, “Vitamin D3 Derivatives and Pharmaceutical Use Thereof” (Kyoto University, priority 2014, published 2018) are described below.

“And” between values parts separate entries of the source, which are not always exact repeats. Identical values can stand only once. “Also recorded” adds a separate entry of the source.

Common to all, as to assay type: cell-based, Chinese hamster
Experiment [1] concerns SREBP-2 fragment fused to PLAP (PLAP-BP2513-1141). The experiment is described as follows: PLAP-BP assay (secreted alkaline phosphatase reporter of SREBP translocation and processing). To be noted: VD derivatives 10 μM, 20 h, CHO-K1 co-transfected with PLAP-BP2 and SCAP; average of two experiments.
For another experiment, the target named is SREBP. The experiment is described as follows: SRE-driven luciferase reporter assay of SREBP activation. To be noted: luciferase reporter in CHO-K1 cells, lipid-depleted medium, 20-24 h, normalized to β-galactosidase; averages of three independent experiments; read-out: IC50 (μM), inhibitory effect on the activation of SREBP. The protocol:
The transfected cells were treated with DMSO alone, sterols (10 μg/mL cholesterol and 1.0 μg/mL 25-HC), or varied concentrations of 25(OH)D in a medium containing lipid-free serum. Luciferase activity was measured after 20 h incubation, and the data were normalized to β-galactosidase activity. Values are the mean±SD of three independent experiments.
The molecules in a chemical library which consists of 280 endogenous lipid related molecules were screened for their ability to inhibit the expression of a luciferase reporter gene. In this gene, three repeats of sterol regulatory elements (SREs) control expression of luciferase. Lipid depletion activates SREBPs, which bind to the SRE domain and work as transcription factors to express luciferase. The SREBP-responsive reporter construct was co-transfected into Chinese hamster ovary K1 (CHO-K1) cells, along with a control β-galactosidase (β-gal) reporter gene. A constitutively active actin promoter in the reporter gene drives the expression of β-gal. The levels of luciferase expression from the SREBP-responsive reporter gene were normalized to the levels of β-gal expression.
CHO-K1 cells were maintained in a medium A (1:1 mixture of Ham's F-12 medium and Dulbecco's modified Eagle medium, supplemented with 100 units/mL penicillin, 100 μg/mL streptomycin sulfate, and 5% (v/v) fetal bovine serum) at 37° C. under humidified 5% CO2.
On day 0, CHO-K1 cells were added to 96-well plates at 1.0×10^4 cells per well in medium A. On day 1, the cells were co-transfected with an SRE-1-driven luciferase reporter construct (pSRE-Luc) and pAc-β-gal at a 20/1 ratio, using FuGENE(Registered trademark) HD transfection reagent (Promega), according to the manufacturer's protocol. After 8-12 h of incubation, the cells were washed with PBS buffer, then incubated in medium B containing the specific test compounds. […] After 20-24 h of incubation, the cells in each well were lysed by freeze-thaw with Reporter Lysis Buffer (Promega), and aliquots were used to measure luciferase and β-galactosidase activities. Luciferase activity was measured using the Steady-Glo(Registered trademark) Luciferase Assay System (Promega), and β-galactosidase activity was measured using the β-galactosidase Enzyme Assay System (Promega). Luciferase activity was normalized to β-galactosidase activity.
Background: Reporter assays use an easily measured gene product as a stand-in for the process of interest.

A further experiment deals with SREBP-2. Nature of the experiment: Western-blot analysis of SREBP-2 in CHO-K1 cells. To be noted: 5 μM, 18 h, CHO-K1 cells (FIG. 3). As for the experimental part:
CHO-K1 cells were treated with DMSO alone or each molecule (5 μM) for 18 h. The levels of precursor and mature forms of SREBP-2 were analyzed by Western-blot. Western-blots of actin are shown in lower panel as a loading control.
CHO-K1 cells were treated with DMSO alone or each molecule (5 μM) for 16 h. The levels of precursor and mature forms of SREBP-2 were analyzed by Western-blot. Western-blots of actin are shown in lower panel as a loading control.
(§1) On day 0, CHO-K1 cells were added to 6-well plates at 3.0×10^5 cells per well in medium A. On day 1, the cells were washed with PBS, and then incubated in medium B in the absence or presence of specific test compounds (5 μM). After 16 h of incubation, the cells were washed three times with cold PBS, and lysed with a buffer A (50 mM Tris-HCl (pH 7.5), 150 mM NaCl, 1% (v/v) Nonidet P40, 0.5% (w/v) sodium deoxycholate, 8 M urea, and protease inhibitor cocktail (Nacalai)). The cell lysate were passed 16 times through a 25 G needle and centrifuged at 7,000 g at 4° C. for 10 min. The supernatants were transferred to new tubes, and the pellets were extracted with a buffer A. The resulting buffer was centrifuged at 7,000 g at 4° C. for 10 min, and the supernatants were combined to the previous ones. The resulting lysate was mixed with 0.20 volume of 6×SDS sample buffer (Nacalai) and incubated at room temperature for 30 min. The samples were separated on a 10% SDS-PAGE gel and blotted, using mouse monoclonal antibodies against SREBP-2 (IgG-7D4), SCAP (IgG-9D5), c-Myc (IgG1-MC045), and actin (AC-40). The specific bands were visualized using enhanced chemiluminescence (ECL Prime Western Blotting Detection Reagent, GE Healthcare) on an ImageQuant LAS 500 (GE Healthcare).

Experiment [2] concerns the target T1, SCAP (Cricetulus griseus, UniProt P97260).
T1 construct: endogenous in cells; host or cells: CHO-K1
T1 sequence (P97260 1-1276): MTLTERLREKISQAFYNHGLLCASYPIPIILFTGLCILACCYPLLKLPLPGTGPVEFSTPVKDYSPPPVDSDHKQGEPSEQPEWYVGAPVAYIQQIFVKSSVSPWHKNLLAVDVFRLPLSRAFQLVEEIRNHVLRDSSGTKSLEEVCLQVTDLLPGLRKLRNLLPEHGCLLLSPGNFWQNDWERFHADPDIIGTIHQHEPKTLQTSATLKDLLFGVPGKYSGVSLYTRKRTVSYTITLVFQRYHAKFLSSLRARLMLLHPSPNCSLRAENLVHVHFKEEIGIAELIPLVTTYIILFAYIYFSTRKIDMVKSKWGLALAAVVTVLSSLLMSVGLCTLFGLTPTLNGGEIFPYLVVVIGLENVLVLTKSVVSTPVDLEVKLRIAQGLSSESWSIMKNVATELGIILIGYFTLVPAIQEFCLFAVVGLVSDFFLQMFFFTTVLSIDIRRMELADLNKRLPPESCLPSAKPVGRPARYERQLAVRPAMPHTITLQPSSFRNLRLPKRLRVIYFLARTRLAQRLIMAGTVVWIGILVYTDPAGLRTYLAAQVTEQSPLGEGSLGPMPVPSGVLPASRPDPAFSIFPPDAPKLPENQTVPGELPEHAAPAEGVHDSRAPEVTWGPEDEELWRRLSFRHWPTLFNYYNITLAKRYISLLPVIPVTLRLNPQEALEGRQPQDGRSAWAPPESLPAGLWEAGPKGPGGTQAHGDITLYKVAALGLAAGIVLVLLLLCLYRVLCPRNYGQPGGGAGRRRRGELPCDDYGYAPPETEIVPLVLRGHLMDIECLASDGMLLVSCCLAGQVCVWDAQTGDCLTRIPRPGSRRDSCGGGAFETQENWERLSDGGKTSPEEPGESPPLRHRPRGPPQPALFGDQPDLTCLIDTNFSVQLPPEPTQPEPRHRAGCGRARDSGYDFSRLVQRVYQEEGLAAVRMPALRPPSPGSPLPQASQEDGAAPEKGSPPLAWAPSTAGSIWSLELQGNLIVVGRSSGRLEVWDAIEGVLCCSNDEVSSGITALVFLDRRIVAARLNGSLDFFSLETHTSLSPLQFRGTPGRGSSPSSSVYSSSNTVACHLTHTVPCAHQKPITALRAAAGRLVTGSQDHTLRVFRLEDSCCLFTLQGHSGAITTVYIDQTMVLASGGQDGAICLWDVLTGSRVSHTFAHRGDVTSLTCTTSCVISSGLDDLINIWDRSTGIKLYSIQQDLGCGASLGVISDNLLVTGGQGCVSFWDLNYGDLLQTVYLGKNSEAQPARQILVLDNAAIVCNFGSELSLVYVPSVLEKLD
The experiment is described as follows: Western-blot analysis of SCAP levels and ubiquitination in CHO-K1 cells. Conditions: 5 μM, CHO-K1 cells, different times (FIG. 4). As for the experimental part:
(§2) After incubation for the indicated time, the levels of SCAP and precursor and mature forms of SREBP-2 were analyzed by Western-blot. Western-blots of actin are shown in lower panel as a loading control.
(§3) CHO-K1 cells were treated with DMSO alone or 25(OH)D (5 μM) in the presence or absence of MG-132 (10 μM) for 5 h. The levels of Myc-SCAP were analyzed by Western-blot. Western-blots of actin are shown in lower panel as a loading control.
(§4) CHO-K1 cells were treated with DMSO alone (−) or 25(OH)D (5 μM, +). After 2 h incubation, each dish received MG-132 (10 μM). Following incubation for 2 h, cells were harvested and subjected to immunoprecipitation with monoclonal anti-c-Myc-conjugated agarose beads. The ubiquitination of SCAP was analyzed by Western-blot.
as §1

Experiment [3] concerns SCAP. Described as above. The protocol:
as §2, §3, §4, §1

For orientation: IC50 means the point on the concentration scale where inhibition reaches its midpoint. Turning to `C=C1CC[C@H](O)C/C1=C/C=C1\CCC[C@]2(C)[C@@H]([C@H](C)CCCC(C)(C)O)CC[C@@H]12` [25(OH)D, 25-hydroxyvitamin D3], the “secretion of PLAP” value in experiment [1] is “inhibited the secretion of PLAP to a greater extent than sterol; also recorded: caused a greater decrease in PLAP secretion than did cholesterol”. In addition, the IC50 on SREBP is 1 µM and 1.09 µM. Also, in the experiment with SREBP-2, the “level of mature form of SREBP” value is “decreased” and the “level of precursor form of SREBP” value is given as “decreased”. In addition, on SCAP [2], the “levels of SCAP” value is recorded as “reduced”. In addition, the “ubiquitination of SCAP” value in the experiment on SCAP [3] (5 μM, 2 h then MG-132 10 μM for 2 h, immunoprecipitation (FIG. 6)) is listed as “accelerated”. In the experiment on SCAP [3] (25(OH)D 5 μM with MG-132 10 μM, 5 h (FIG. 5)), the “decrease in the levels of SCAP (Myc-SCAP) on addition of MG-132” value is listed as “cancelled”.
